Laboratory results from patent US9901617B2, “Cell permeable inhibitors of the scaffold protein plenty of SH3 domains (POSH) or Sh3Rfl” (The Curators of the University of Missouri, priority 2013, dated 2018).
No end group written: not given here.

Tests used:
POSH/JIP-1 complex = POSH/JIP-1 complex (Mus musculus, UniProt Q9WVI9)
Method: To identify a role for POSH in TCR-mediated JNK activation, we established its ability to bind components of the JNK signaling cascade in CD8+ T cells. For this, OT-1 TCR transgenic blasts (CTL) were re-stimulated with OVA-Tetramer (Tet)/α-CD28 and subjected to IP with antibodies against Rac1. Co-immunoprecipitation (Co-IP) of components of the JNK signaling pathway was assessed by immunoblot. […] To circumvent this problem we performed Co-IP analyses by flow cytometry (IP-FCM) using α-Rac1, α-POSH and α-JIP-1 antibodies covalently linked to latex beads. The beads were incubated with the lysates washed and probed with antibodies against the Co-IP target. The levels of associated molecules (secondary analyte/Co-IP target) were quantified relative to IP target (primary analyte/loading control). Specificity was determined by comparison to both isotype and negative control antibodies (FIG. 5 and FIG. 6). […] For IP-FCM quantification controls and Tat-POSH inhibitor specificity controls, OT-I T cells were stimulated with OVA-Tet for 24 hours. Cells were then lysed and subjected to IP-FCM using α-Rac-1, α-POSH or α-JIP-1 beads (FIG. 6A).
Cells were then lysed and subjected to IP-FCM using α-JIP-1 or α-Rac1 beads and the relative levels of POSH or JIP-1 were determined.

T cells = conditions: across a large range of concentrations
CD8+ T cells = conditions: data not shown

Sequence of POSH/JIP-1 complex (Q9WVI9 whole entry): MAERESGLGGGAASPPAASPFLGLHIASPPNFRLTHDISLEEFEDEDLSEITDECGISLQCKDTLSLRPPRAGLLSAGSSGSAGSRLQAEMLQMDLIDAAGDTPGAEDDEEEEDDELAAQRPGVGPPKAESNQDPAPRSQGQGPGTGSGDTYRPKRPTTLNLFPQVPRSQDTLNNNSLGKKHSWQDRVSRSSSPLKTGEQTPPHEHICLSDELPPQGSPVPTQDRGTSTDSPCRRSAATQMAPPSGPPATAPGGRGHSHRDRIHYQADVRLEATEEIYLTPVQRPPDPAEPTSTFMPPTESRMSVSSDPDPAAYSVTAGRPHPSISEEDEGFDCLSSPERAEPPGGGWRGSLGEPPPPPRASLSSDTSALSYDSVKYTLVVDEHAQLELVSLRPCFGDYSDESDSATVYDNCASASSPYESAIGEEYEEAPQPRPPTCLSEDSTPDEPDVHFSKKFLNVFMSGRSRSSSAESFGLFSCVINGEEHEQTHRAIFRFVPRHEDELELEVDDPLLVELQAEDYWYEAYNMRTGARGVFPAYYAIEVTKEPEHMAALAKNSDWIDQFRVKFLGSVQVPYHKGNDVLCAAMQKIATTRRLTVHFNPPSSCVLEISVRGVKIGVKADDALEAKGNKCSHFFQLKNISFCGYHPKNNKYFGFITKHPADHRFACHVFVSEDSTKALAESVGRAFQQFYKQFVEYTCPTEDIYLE
Sequence of POSH/JIP-1 complex (Q8CE90 whole entry partner): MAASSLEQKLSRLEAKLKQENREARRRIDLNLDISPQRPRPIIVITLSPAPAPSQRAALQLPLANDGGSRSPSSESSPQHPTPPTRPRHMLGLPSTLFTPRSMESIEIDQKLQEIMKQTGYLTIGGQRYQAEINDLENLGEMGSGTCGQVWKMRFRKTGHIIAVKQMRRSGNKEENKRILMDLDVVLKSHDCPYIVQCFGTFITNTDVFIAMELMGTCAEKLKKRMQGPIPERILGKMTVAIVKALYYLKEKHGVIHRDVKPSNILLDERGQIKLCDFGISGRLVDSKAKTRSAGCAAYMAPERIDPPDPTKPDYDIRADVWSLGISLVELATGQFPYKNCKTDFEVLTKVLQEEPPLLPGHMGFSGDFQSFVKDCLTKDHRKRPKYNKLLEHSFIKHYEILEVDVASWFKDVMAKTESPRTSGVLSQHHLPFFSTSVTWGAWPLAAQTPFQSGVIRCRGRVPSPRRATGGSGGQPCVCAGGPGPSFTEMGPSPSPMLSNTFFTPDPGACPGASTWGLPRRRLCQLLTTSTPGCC
Sequence of POSH/JIP-1 complex (Q91Y86 whole entry partner): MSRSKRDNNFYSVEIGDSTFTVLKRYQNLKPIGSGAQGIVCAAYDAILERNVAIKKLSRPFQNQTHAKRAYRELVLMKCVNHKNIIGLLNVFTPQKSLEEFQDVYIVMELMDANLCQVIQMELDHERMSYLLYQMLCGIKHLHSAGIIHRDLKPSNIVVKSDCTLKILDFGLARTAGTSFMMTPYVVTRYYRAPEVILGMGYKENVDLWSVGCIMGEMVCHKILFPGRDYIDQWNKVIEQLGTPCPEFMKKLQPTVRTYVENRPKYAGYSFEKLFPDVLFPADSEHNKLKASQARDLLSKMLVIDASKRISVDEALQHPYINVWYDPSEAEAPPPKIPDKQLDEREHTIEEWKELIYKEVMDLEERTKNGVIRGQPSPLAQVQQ

GRKKRRQRRRPPRKEDELELRKGEMFLVFER [Tat-POSH SH3.3]
POSH/JIP-1 complexes disrupted (POSH/JIP-1 complex): approximately 30%
toxicity to T cells (T cells): non-toxic
reduction in in vitro cytotoxicity (CD8+ T cells): 10-15%
effect on normal cells (normal thymocytes): not affected
